Results as given in ChEMBL document CHEMBL2429821, “A Casein kinase 1/Checkpoint kinase 1 pyrazolo-pyridine protein kinase inhibitor as novel activator of the p53 pathway” (Bioorg Med Chem Lett, 2013).

Assays:
[1] = target: Ribosomal protein S6 kinase alpha-3 (Homo sapiens) (UniProt P51812); assay: Inhibition of human RSK2 assessed as residual activity at 1 uM relative to control
[2] = target: RAC-beta serine/threonine-protein kinase (Homo sapiens) (UniProt P31751); assay: Inhibition of human PKBbeta assessed as residual activity at 10 uM relative to control
[3] = target: T1, Serine/threonine-protein kinase Chk1 (Homo sapiens) (UniProt O14757); assay: Inhibition of human CHK1 assessed as residual activity at 10 uM relative to control
T1 sequence (whole entry): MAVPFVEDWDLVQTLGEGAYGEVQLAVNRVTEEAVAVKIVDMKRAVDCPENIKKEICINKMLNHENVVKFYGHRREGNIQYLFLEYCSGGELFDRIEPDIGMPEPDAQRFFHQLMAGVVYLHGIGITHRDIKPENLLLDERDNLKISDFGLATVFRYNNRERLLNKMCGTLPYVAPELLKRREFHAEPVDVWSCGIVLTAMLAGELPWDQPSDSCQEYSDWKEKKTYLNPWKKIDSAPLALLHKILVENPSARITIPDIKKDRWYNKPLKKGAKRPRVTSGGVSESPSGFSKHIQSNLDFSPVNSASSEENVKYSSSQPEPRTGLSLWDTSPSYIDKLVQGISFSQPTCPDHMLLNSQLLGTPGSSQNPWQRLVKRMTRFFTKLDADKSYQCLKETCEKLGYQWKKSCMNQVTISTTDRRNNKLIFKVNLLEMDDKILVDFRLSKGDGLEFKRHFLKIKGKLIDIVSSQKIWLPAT

[4] = target: Serine/threonine-protein kinase PAK 4 (Homo sapiens) (UniProt O96013); assay: Inhibition of human PAK4 assessed as residual activity at 1 uM relative to control
[5] = target: T1, Serine/threonine-protein kinase Chk1 (Homo sapiens); assay: Inhibition of human CHK1 assessed as residual activity at 1 uM relative to control
[6] = target: Serine/threonine-protein kinase PLK1 (Homo sapiens) (UniProt P53350); assay: Inhibition of human PLK1 assessed as residual activity at 10 uM relative to control
[7] = target: Serine/threonine-protein kinase Nek6 (Homo sapiens) (UniProt Q9HC98); assay: Inhibition of human NEK6 assessed as residual activity at 10 uM relative to control
[8] = target: T2, Serine/threonine-protein kinase D1 (Homo sapiens) (UniProt Q15139); assay: Inhibition of human PKD1 assessed as residual activity at 1 uM relative to control
T2 sequence (whole entry): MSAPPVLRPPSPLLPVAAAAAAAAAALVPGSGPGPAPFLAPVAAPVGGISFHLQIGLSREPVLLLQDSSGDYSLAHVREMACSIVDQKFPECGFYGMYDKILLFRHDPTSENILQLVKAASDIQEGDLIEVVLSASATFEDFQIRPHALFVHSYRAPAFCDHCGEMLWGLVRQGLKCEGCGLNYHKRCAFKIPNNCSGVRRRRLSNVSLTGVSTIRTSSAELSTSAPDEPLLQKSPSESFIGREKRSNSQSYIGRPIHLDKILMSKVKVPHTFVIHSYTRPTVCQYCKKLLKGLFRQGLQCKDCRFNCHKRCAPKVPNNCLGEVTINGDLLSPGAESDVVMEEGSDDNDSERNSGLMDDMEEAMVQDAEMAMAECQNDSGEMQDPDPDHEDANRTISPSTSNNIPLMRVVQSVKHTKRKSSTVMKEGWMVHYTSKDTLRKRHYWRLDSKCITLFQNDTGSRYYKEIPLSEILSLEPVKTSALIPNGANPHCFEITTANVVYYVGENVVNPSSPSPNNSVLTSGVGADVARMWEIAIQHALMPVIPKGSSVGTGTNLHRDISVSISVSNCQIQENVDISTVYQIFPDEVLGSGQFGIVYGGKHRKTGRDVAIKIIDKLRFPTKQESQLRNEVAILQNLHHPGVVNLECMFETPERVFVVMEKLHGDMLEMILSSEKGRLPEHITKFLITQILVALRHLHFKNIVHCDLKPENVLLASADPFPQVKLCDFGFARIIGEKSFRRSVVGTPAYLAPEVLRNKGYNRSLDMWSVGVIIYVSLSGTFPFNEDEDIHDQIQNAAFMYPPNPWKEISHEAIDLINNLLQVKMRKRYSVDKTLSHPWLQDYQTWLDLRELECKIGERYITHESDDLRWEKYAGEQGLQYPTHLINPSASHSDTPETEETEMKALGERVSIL

[9] = target: Serine/threonine-protein kinase Chk2 (Homo sapiens) (UniProt O96017); assay: Inhibition of human CHK2 assessed as residual activity at 10 uM relative to control
[10] = target: T3, Protein kinase C zeta type (Homo sapiens) (UniProt Q05513); assay: Inhibition of human PKCzeta assessed as residual activity at 10 uM relative to control
T3 sequence (whole entry): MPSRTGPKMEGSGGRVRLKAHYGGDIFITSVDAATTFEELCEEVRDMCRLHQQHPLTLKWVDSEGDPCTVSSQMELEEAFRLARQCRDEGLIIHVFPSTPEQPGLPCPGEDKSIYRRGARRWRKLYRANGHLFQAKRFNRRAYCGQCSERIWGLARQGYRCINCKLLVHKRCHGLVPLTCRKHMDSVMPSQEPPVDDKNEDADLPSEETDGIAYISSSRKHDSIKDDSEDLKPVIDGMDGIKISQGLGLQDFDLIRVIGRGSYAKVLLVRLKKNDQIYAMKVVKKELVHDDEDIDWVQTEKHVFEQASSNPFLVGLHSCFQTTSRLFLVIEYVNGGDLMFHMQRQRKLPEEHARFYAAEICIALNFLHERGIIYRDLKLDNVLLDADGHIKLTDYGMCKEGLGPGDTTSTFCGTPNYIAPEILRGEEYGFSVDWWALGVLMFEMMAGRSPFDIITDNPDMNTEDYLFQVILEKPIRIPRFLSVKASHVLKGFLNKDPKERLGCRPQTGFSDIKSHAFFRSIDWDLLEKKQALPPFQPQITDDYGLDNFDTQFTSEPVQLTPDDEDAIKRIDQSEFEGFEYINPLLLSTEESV

[11] = target: T3, Protein kinase C zeta type (Homo sapiens); assay: Inhibition of human PKCzeta assessed as residual activity at 1 uM relative to control
[12] = target: Insulin-like growth factor 1 receptor (Homo sapiens) (UniProt P08069); assay: Inhibition of human IGF-1R assessed as residual activity at 10 uM relative to control
[13] = target: Serine/threonine-protein kinase pim-1 (Homo sapiens) (UniProt P11309); assay: Inhibition of human PIM1 assessed as residual activity at 10 uM relative to control
[14] = target: SRSF protein kinase 1 (Homo sapiens) (UniProt Q96SB4); assay: Inhibition of human SRPK1 assessed as residual activity at 10 uM relative to control
[15] = target: SRSF protein kinase 1 (Homo sapiens) (UniProt Q96SB4); assay: Inhibition of human SRPK1 assessed as residual activity at 1 uM relative to control
[16] = target: Homeodomain-interacting protein kinase 2 (Homo sapiens) (UniProt Q9H2X6); assay: Inhibition of human HIPK2 assessed as residual activity at 1 uM relative to control
[17] = target: RAC-beta serine/threonine-protein kinase (Homo sapiens) (UniProt P31751); assay: Inhibition of human PKBbeta assessed as residual activity at 1 uM relative to control

Serine/threonine-protein kinase PAK 4 (Homo sapiens), sequence (O96013 whole entry, looked up): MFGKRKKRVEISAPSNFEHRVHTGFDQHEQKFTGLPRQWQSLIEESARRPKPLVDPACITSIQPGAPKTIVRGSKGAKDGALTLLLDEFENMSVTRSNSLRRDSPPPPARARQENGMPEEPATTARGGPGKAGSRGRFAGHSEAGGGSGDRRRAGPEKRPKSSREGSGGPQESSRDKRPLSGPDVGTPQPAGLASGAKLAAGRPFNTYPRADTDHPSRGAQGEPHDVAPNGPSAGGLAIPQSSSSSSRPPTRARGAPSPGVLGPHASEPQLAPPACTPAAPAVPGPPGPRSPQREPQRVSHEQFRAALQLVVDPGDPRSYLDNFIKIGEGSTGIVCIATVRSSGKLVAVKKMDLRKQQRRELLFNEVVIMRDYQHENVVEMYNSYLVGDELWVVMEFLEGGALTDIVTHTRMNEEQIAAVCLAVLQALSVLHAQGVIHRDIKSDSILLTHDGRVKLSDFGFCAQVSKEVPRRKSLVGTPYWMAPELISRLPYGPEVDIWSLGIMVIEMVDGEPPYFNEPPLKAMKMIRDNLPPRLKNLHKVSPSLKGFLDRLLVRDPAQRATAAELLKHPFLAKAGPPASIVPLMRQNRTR
SRSF protein kinase 1 (Homo sapiens), sequence (Q96SB4 whole entry): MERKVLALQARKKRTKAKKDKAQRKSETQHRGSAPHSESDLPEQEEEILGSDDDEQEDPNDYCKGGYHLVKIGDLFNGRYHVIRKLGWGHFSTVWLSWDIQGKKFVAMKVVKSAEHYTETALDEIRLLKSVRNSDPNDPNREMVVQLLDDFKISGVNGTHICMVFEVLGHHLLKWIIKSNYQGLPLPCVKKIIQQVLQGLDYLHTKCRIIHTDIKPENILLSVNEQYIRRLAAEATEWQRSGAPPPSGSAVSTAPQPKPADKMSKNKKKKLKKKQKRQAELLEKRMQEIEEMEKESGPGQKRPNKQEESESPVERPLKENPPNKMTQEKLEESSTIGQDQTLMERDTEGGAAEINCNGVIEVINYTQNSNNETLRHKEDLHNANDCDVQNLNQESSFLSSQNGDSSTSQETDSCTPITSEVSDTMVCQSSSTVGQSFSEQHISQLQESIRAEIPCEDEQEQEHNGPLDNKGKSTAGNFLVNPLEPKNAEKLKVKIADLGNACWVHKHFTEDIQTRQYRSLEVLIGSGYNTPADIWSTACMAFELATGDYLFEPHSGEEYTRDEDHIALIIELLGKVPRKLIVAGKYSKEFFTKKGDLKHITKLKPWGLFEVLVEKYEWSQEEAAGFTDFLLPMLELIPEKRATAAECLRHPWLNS
Ribosomal protein S6 kinase alpha-3 (Homo sapiens), sequence (P51812 whole entry): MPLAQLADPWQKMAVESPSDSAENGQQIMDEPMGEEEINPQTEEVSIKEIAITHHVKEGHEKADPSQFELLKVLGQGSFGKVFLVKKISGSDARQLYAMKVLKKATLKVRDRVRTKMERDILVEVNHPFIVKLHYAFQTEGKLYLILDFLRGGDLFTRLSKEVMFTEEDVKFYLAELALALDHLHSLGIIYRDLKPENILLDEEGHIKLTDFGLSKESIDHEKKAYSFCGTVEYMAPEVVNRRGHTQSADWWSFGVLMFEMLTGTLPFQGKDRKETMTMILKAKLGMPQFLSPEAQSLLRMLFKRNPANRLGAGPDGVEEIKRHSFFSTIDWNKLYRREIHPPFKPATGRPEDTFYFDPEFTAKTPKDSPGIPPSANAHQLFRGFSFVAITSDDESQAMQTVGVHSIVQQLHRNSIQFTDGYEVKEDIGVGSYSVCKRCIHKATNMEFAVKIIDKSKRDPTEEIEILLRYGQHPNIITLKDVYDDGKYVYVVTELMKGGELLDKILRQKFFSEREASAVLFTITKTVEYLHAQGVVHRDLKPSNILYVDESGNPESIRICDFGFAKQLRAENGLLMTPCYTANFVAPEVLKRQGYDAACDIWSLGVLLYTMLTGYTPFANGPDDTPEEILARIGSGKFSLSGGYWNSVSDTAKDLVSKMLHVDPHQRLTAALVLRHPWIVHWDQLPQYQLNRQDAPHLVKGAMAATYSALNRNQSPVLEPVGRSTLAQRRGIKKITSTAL
RAC-beta serine/threonine-protein kinase (Homo sapiens), sequence (P31751 whole entry): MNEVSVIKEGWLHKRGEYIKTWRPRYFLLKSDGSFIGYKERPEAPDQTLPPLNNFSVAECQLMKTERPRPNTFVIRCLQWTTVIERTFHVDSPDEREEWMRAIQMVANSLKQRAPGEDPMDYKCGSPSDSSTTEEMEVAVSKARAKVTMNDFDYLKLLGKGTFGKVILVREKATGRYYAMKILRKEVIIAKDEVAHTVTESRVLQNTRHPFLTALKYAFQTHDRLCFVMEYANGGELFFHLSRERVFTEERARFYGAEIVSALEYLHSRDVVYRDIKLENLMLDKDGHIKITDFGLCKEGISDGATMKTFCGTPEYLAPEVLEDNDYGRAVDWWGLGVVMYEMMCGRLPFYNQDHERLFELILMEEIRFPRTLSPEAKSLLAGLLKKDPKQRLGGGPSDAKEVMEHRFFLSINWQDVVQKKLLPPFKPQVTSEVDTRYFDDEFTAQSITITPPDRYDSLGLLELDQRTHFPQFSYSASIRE
Insulin-like growth factor 1 receptor (Homo sapiens), sequence (P08069 31-736 limits assumed): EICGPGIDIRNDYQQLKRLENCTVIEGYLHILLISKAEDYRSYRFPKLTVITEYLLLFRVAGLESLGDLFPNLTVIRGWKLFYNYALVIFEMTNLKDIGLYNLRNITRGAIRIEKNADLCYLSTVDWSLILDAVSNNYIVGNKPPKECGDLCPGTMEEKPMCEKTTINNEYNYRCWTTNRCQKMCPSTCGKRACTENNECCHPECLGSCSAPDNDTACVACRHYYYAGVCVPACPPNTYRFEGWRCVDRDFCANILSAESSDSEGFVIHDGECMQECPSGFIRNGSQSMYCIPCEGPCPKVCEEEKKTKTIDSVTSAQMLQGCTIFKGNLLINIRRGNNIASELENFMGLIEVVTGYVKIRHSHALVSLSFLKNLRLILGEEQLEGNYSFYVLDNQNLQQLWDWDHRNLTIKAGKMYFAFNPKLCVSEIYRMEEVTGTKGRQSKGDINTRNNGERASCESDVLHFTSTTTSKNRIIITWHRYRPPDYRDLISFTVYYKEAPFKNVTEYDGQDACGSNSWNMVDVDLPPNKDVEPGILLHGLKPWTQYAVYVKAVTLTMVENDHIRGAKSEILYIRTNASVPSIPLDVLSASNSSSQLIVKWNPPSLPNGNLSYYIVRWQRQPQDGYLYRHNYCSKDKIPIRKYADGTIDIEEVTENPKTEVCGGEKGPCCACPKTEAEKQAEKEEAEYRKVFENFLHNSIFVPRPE
Insulin-like growth factor 1 receptor (Homo sapiens), sequence (P08069 741-1367 limits assumed): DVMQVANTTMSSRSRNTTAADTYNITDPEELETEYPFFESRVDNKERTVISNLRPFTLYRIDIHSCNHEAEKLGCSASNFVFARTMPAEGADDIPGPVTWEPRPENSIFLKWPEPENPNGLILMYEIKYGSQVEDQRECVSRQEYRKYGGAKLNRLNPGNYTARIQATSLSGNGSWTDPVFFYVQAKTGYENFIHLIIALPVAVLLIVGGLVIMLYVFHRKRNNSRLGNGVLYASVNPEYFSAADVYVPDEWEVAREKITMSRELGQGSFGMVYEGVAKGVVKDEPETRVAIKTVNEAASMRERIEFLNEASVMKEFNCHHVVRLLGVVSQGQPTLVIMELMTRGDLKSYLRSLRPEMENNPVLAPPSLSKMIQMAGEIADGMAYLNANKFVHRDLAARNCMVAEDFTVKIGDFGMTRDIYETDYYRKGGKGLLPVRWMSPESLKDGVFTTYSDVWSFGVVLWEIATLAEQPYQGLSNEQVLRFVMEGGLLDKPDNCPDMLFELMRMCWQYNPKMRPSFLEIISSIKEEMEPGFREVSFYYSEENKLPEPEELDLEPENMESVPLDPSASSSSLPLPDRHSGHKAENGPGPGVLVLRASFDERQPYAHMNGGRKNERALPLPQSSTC
Serine/threonine-protein kinase PLK1 (Homo sapiens), sequence (P53350 whole entry): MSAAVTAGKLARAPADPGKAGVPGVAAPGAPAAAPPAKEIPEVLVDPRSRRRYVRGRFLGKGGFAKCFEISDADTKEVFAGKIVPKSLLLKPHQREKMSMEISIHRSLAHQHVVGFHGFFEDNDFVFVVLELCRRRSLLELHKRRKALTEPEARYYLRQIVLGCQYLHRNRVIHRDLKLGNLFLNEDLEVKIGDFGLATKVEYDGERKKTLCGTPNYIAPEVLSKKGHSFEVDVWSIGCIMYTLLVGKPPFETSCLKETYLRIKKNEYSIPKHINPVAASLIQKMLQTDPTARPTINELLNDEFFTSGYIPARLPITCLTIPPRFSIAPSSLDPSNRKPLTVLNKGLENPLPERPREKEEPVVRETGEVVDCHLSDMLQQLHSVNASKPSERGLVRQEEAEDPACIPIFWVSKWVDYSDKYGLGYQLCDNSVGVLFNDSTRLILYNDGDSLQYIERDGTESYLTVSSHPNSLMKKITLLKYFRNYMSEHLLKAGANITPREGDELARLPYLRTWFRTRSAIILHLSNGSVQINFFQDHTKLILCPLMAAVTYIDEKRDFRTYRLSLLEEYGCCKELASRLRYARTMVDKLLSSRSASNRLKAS
Serine/threonine-protein kinase Chk2 (Homo sapiens), sequence (O96017 whole entry): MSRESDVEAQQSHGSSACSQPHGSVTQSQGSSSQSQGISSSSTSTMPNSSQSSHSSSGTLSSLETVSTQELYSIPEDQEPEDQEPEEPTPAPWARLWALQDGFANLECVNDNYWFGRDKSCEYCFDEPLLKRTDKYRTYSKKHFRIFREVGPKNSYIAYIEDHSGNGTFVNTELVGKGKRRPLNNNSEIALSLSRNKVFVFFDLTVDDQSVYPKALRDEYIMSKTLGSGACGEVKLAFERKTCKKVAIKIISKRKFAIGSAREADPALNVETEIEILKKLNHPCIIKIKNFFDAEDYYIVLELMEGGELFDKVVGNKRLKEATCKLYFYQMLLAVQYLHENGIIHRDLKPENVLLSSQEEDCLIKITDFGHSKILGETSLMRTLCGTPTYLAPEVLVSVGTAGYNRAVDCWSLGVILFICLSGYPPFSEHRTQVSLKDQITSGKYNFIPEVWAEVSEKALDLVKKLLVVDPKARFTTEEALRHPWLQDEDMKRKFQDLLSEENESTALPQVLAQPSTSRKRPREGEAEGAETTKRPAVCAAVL

| Activity [1] | Activity [2] | Activity [3] | Activity [4] | Activity [5] | Activity [6] | Activity [7] | Activity [8] | Activity [9] | Activity [10] | Activity [11] | Activity [12] | Activity [13] | Activity [14] | Activity [15] | Activity [16] | Activity [17] | Compound |
| --- | --- | --- | --- | --- | --- | --- | --- | --- | --- | --- | --- | --- | --- | --- | --- | --- | --- |
| 93.8% | 94% | 4.34% | 71.2% | 31.5% | 95.5% | 94.3% | 108% | 28.9% | 84.2% | 120% | 12.5% | 28.2% | 89% | 95.9% | 72% | 94.6% | CC(=O)Nc1cccc(-c2cnc3[nH]nc(C)c3c2)c1 |
| 78.7% | 84% | 105% | 115% | 80.6% | 81.6% | 78.8% | 80.7% | 78.8% | 82% | 93.7% | 92.5% | 88.9% | 91.3% | 87.7% | 98.9% | 89.7% | CC(=O)Nc1nccc(-c2c(-c3ccccc3)noc2C)n1 |
| 92% | 91% | 82% | 89% | 92% | 80% | 90% | 76% | 96% | 77% | 84% | 92% | 53% | 91% | 93% | 72% | 94% | CCCC(=O)Nc1n[nH]c2ncc(-c3cccnc3)cc12 |
